# Laboratory results published in patent US20200170259A1, “COMPOSITIONS AND METHODS FOR INDUCING PLANT GENE EXPRESSION AND ALTERING PLANT MICROBIOME COMPOSITION FOR IMPROVED CROP PERFORMANCE” (ADVANCED BIOLOGICAL MARKETING, INC., priority 2018, published 2020).
# Key:
# rhizosphere inhabitants = conditions: in vivo
# Method: A survey of rhizosphere inhabitants in a corn trial with control, Trichoderma strain treatment for corn (2 ABM Trichoderma strains), [MUT] (ABM Trichoderma+Bacillus strains), or Trichoderma metabolite (1-Octene-3-ol) seed treatments was made. The organism lifestyle metadata were analyzed for each treatment.
# maize gene expression = experiment: Differential gene expression (Blast 2Go DGE) in maize versus control (FIGS. 20-25); assay type: in vivo
# Method: Turning to FIGS. 20-24, differential gene expression (Blast 2Go DGE) is measured, wherein the corresponding legend of FIG. 20 presents comparison to a control, wherein the higher scale shown (color or patterned), the higher level of upregulation has occurred.
# The lab plants were grown in conical tubes with nutrient bath and to simulate osmotic stress from drought they added a polyethylene glycol (PEG) solution to the tubes.
# FIG. 25 depicts a table of changes in corn gene expression versus an untreated control in RNAseq experiments of FIGS. 20-24. Reference to “Lab (sterile, no soil)” is the data from the conical tube experiments of FIG. 23 and FIG. 24.
# corn gene expression = experiment: RNAseq of corn seedlings, variability of gene expression (FIGS. 17-19); assay type: in vivo
# Excerpt: Plants colonized by Trichoderma show highly focused and reproducible patterns of gene expression. Uncolonized plants show highly variable gene expression. We propose that gene expression in plants colonized by Trichoderma responds specifically to that colonization and further that Trichoderma redirects plant gene expression to more targeted biological processes supporting Trichoderma niche development. Gene expression in uncolonized plants responds to the entire set of environmental factors present with relatively little process hierarchy. FIG. 17 depicts a representation of all gene expression in corn seedlings exposed to various seed treatments versus an untreated seed in both standard and drought conditions. FIG. 17 further groups the applicable replicates in order to convey variability, and data sets refer to principal component analysis, in order to evidence variability. All samples with the exception of the Trichoderma metabolite (1-Octene-3-ol), are root apical meristem (RAM) measurements. The sampling occurred from seeds that were grown for seven days before sampling. Observed variability was high in corn gene expression in standard and drought conditions. (See untreated). […] (see SabrEx and Oct). Thus, untreated plants are busy responding to a lot of environmental factors, Trichoderma strain treatment/1-Octene-3-ol treated plants are controlled somewhat by the treatment, which supports findings in previous RNAseq experiments, where correlation is shown by the reduction in microbiome diversity in the field, in the reduction of error bars in field performance data. This is a clear benefit of Trichoderma strain treatment and metabolite (1-Octene-3-ol). Reduction of variable performance in the field is therefore because the plant gene expression has been remodeled or refined by Trichoderma. FIGS. 18A-B depict multidimensional scaling plots of corn gene expression when colonized by Trichoderma, particularly, 2-Trichoderma strain treatment and untreated in unstressed conditions. […]
smiles,measurement,setting,value
C=CC(O)CCCCC (centres unmarked) [1-Octene-3-ol],Plant disease resulting from rhizosphere pathogens,rhizosphere inhabitants,did not result in plant disease
same,Shoot responses upregulated,maize gene expression,"Abiotic stimulus, water deprivation, and chemical stimulus"
same,Reproducibility of expression pattern (multidimensional scaling plot),"corn gene expression; FIGS. 18A-B, unstressed conditions per legend",generally more reproducible expression pattern than the untreated
same,Reproducibility of expression pattern (multidimensional scaling plot),"corn gene expression; FIGS. 19A-B, drought conditions per legend",generally more reproducible expression pattern than the untreated
same,Effect on variability of overall corn gene expression (principal component analysis),"corn gene expression; seedlings grown seven days, standard and drought conditions, FIG. 17",focusses gene expression
